Source: patent publication US20120052061A1, “THERAPIES FOR TREATING CANCER USING COMBINATIONS OF COX-2 INHIBITORS AND ANTI-HER2(ERBB2) ANTIBODIES OR COMBINATIONS OF COX-2 INHIBITORS AND HER2(ERBB2) RECEPTOR TYROSINE KINASE INHIBITORS” (Tragara Pharmaceuticals Inc., priority 2007, published 2012)
Read-outs that look alike come from different tables or passages of the source.

Key:
[1] = test system: human breast cancer cells (SK-BR-3); assay: SK-BR-3 model (Example 8); format: in vivo, nude mice; conditions: trastuzumab intravenously
Method: Mice are injected subcutaneously in the left paw (1×10^6 tumor cells suspended in 30% Matrigel) and tumor volume is evaluated using a phlethysmometer twice a week for 30-60 days. Implantation of human breast cancer cells (SK-BR-3) into nude mice produces tumors that will reach 0.6-2 ml between 30-50 days. […] The data is expressed as the mean+/−SEM. Student's and Mann-Whitney tests are used to assess differences between means using the InStat software package.
The efficacy of both agents are determined by measuring tumor volume.
B. In a second assay, mice injected with SK-BR-3 cancer cells are then treated with 5-FU on days 12 through 15. […] The efficacy of both agents are determined by measuring tumor volume.

[2] = oral pharmacokinetics, all species examined; format: in vivo, mice, rats, dogs, and monkeys; conditions: orally administered
Method: (§1) Peak plasma concentrations were achieved between 1 and 3 hours after a dose of 5 mg/kg.

[3] = oral pharmacokinetics in rodents; format: in vivo, rodents (mice, rats)
Method: as §1

[4] = oral pharmacokinetics in dogs; format: in vivo
Method: as §1

[5] = oral pharmacokinetics in monkeys; format: in vivo
Method: as §1

[6] = human, in vivo, po
Method: as §1

[7] = in vivo
[8] = rat, in vivo
[9] = dog, in vivo
[10] = test system: MCF-7 tumor; conditions: for tolerability: mouse, in vivo;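 for all read-outs here: mouse MCF-7 tumor model, oral gavage dosing started once mean tumor size reached 100-200 mg, endpoint at tumor volume 0.75 g or 90 days, whichever occurred earlier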
Method: Upon reaching an average tumor size of 100-200 mg the treatment was begun. Celecoxib and 2-(4-ethoxyphenyl)-4-methyl-1-(4-sulfamoylphenyl)-pyrrole were both formulated as a solution in 1% carboxymethyl cellulose/water and dosed orally by gavage. The endpoint for the study was when tumor volume reached 0.75 gms or 90 days, which ever came first.

[11] = human, in vivo
[12] = test system: BT474 tumor; assay: BT474 model, tumor growth delay study (Example 9); conditions: po, qd to end;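 note: female SCID mice bearing subcutaneous flank BT474 xenografts, oral gavage dosing started at 100-200 mg tumors, caliper volume twice weekly, endpoint tumor 0.75 g or 90 days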
Method: Female SCID mice were injected subcutaneously in the flank (1 mm^3 BT474 tumor) and tumor volume was evaluated using a caliper twice a week for up to 90 days, longer for responders. Upon reaching an average tumor size of 100-200 mg the treatment was begun. Celecoxib and 2-(4-ethoxyphenyl)-4-methyl-1-(4-sulfamoylphenyl)-pyrrole were both formulated as a solution in 1% carboxymethyl cellulose/water and dosed orally by gavage. […] The endpoint for the study was when tumor volume reached 0.75 gms or 90 days, which ever came first.

[13] = third assay (C): 5-FU i.p 50 mg/kg on days 14 through 17, COX-2 inhibitor in the diet
[14] = Groups 3 and 9: 30 mg/kg, po, daily
[15] = Groups 4 and 10: 10 mg/kg, po, daily
[16] = Groups 5 and 11: 3 mg/kg, po, daily
[17] = Groups 6 and 12: 1 mg/kg, po, daily
[18] = Groups 2 and 6: single agent 100 mg/kg
[19] = Groups 3 and 7: single agent 30 mg/kg
[20] = Group 5: single agent 300 mg/kg

Structure (SMILES): O=c1[nH]cc(F)c(=O)[nH]1 [5-FU, 5-fluorouracil]
- reduction of tumor volume ([1]; second assay (B): 5-FU i.p 50 mg/kg on days 12, 13, 14, and 15, pyrrole in the diet): 61%
- reduction of tumor volume [1, 13]: 35%

Structure (SMILES): CCOc1ccc(-c2cc(C)cn2-c2ccc(S(N)(=O)=O)cc2)cc1
- absorption [2]: rapidly absorbed
- half-life ([3]; mice, rats, plasma, 5 mg/kg, rodents, oral, read-out: elimination half life (t1/2)): 4 to 5 h
- Oral availability ([3]; rodent): greatest
- Oral availability [4]: 59%
- Oral availability [5]: 34%
- dose exposure relationship [6]: linear dose exposure relationship
- toxicological findings [7]: expected findings related to inhibition of cyclooxygenase
- minimum lethal dose [8]: 600 mg/kg
- minimum lethal dose [9]: > 2000 mg/kg
- Difference from control ([10]; Group 7: 0.3 mg/kg, po, daily): 2.0
- Median Total Time to Endpoint ([10]; Group 7: 0.3 mg/kg, po, daily): 7.5 days
- Difference from control [10, 14]: 2.5
- Median Total Time to Endpoint [10, 14]: 8.0 days
- Difference from control [10, 15]: 1.8
- Median Total Time to Endpoint [10, 15]: 7.3 days
- Difference from control [10, 16]: 1.3
- Median Total Time to Endpoint [10, 16]: 6.8 days
- Difference from control [10, 17]: 1.6
- Median Total Time to Endpoint [10, 17]: 7.1 days
- tolerability ([10]; po): well-tolerated
- active as a single agent in MCF-7 ([10]; single agent, po, daily): Neither
- gastric or duodenal toxicity compared to placebo [11]: no increase in gastric or duodenal toxicity
- % tumor growth delay ([12]; Group 4: single agent 10 mg/kg): −22%
- Difference from control ([12]; Group 4: single agent 10 mg/kg): −8.5
- Median Total Time to Endpoint ([12]; Group 4: single agent 10 mg/kg): 29.7 days
- Regressions: CR (complete regressions) ([12]; Group 4: single agent 10 mg/kg): 0/0/0
- Regressions: PR (partial regressions) ([12]; Group 4: single agent 10 mg/kg): 0/0/0
- Regressions: TFS (tumor free survivors) ([12]; Group 4: single agent 10 mg/kg): 0/0/0
- % tumor growth delay [12, 18]: −14%
- Difference from control [12, 18]: −5.5
- Median Total Time to Endpoint [12, 18]: 32.7 days
- Regressions: CR (complete regressions) [12, 18]: 0/0/0
- Regressions: PR (partial regressions) [12, 18]: 0/0/0
- Regressions: TFS (tumor free survivors) [12, 18]: 0/0/0
- % tumor growth delay [12, 19]: −16%
- Difference from control [12, 19]: −6.2
- Median Total Time to Endpoint [12, 19]: 32.0 days
- Regressions: CR (complete regressions) [12, 19]: 0/0/0
- Regressions: PR (partial regressions) [12, 19]: 0/0/0
- Regressions: TFS (tumor free survivors) [12, 19]: 0/0/0

Structure (SMILES): Cc1ccc(-c2cc(C(F)(F)F)nn2-c2ccc(S(N)(=O)=O)cc2)cc1 [celecoxib, reference compound]
- Difference from control ([10]; Group 8: 100 mg/kg, po, daily): 1.6
- Median Total Time to Endpoint ([10]; Group 8: 100 mg/kg, po, daily): 7.1 days
- Difference from control [10, 14]: 2.1
- Median Total Time to Endpoint [10, 14]: 7.6 days
- Difference from control [10, 15]: 2.1
- Median Total Time to Endpoint [10, 15]: 7.6 days
- Difference from control [10, 16]: 1.4
- Median Total Time to Endpoint [10, 16]: 6.9 days
- Difference from control [10, 17]: 1.7
- Median Total Time to Endpoint [10, 17]: 7.2 days
- tolerability ([10]; po): well-tolerated
- % tumor growth delay [12, 20]: −4%
- Difference from control [12, 20]: −1.6
- Median Total Time to Endpoint [12, 20]: 36.6 days
- Regressions: CR (complete regressions) [12, 20]: 0/0/0
- Regressions: PR (partial regressions) [12, 20]: 0/0/0
- Regressions: TFS (tumor free survivors) [12, 20]: 0/0/0
- % tumor growth delay [12, 18]: −4%
- Difference from control [12, 18]: −1.4
- Median Total Time to Endpoint [12, 18]: 36.8 days
- Regressions: CR (complete regressions) [12, 18]: 0/0/0
- Regressions: PR (partial regressions) [12, 18]: 0/0/0
- Regressions: TFS (tumor free survivors) [12, 18]: 0/0/0
- Regressions: CR (complete regressions) [12, 19]: 0/0/0
- Regressions: PR (partial regressions) [12, 19]: 0/0/0
- Regressions: TFS (tumor free survivors) [12, 19]: 0/0/0

Structure (SMILES): Cc1onc(-c2ccccc2)c1-c1ccc(S(N)(=O)=O)cc1 [valdecoxib]
- reduction of tumor volume [1, 13]: 69%

Structure (SMILES): O=P1(N(CCCl)CCCl)NCCCO1 (centres unmarked) [cyclophosphamide]
- Difference from control ([10]; Group 2: 112 mg/kg Q4D×3): 9.2
- Median Total Time to Endpoint ([10]; Group 2: 112 mg/kg Q4D×3): 14.7 days
